Patent US7342027B2 (Yuhan Corporation, priority 2002, dated 2008)
Counter-ions that a name gives are not always drawn.

Molecular target: T1, Recombinant human cathepsin K (Homo sapiens, UniProt P43235)
T1 construct: made in house
T1 sequence (P43235 115-329): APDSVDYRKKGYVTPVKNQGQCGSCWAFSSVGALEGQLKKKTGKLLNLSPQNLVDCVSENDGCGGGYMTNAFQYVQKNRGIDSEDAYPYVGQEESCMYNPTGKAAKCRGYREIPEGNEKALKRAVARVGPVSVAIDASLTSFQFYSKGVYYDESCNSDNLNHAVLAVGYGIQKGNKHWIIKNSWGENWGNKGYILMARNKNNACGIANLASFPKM
Test: Inhibition of cathepsin K activity (Z-Phe-Arg-AMC fluorescence assay)
Type: biochemical
Conditions: 25 uM Z-Phe-Arg-AMC, pH 5.5, 1 hour at 37° C.
Description: Test 1: Inhibition of Cathepsin K Activity
Recombinant human cathepsin K was prepared in accordance with Biol, Pharm. Bull, 19(8), 1026-1031 (1996) and J. Biol. Chem. 271, 2126-2132 (1996). Stock solutions of 2.5 mM Z-Phe-Arg-AMC (BACHEM, 1-1160) and all inhibitors were prepared in dimethyl sulfoxide. In vitro assays for cathepsin K were conducted with 25 uM Z-Phe-Arg-AMC as a substrate at pH 5.5 in 100 mM Na acetate buffer containing 20 mM cysteine and 5 mM EDTA in the presence of 2% final concentration of DMSO. Reaction was initiated by the addition of enzyme to samples, which were then incubated for 1 hour at 37° C. The fluorescence was monitored at 460 nm (excitation wavelength 360 nm) using fluorescence plate reader.
The concentrations of the test compounds, which inhibit 50% of cathepsin K activity, are represented as IC50 in Table 1.

Structure (SMILES) | IC50
CS(=O)(=O)c1ccccc1N1CCC(NC(=O)C2(NC(=O)c3ccc4ccccc4n3)CCCCC2)C(=O)C1 (stereo not shown) [Example 136, 4-[N-[1-[N-(quinolin-2-ylcarbonyl)amino]cyclohexanecarbonyl]amino]-1-(2-methanesulfonylphenyl)piperidin-3-one] | 1.62 nM
CSc1ccccc1N1CCC(NC(=O)C2(NC(=O)c3cc4ccccc4o3)CCCCC2)C(=O)C1 (stereo not shown) [Example 36, 4-[N-[1-[N-(benzofuran-2-ylcarbonyl)amino]cyclohexanecarbonyl]amino]-1-(2-methylthiophenyl)piperidin-3-one] | 2.13 nM
Cc1cc(C(=O)NC2(C(=O)NC3CCN(c4ccccc4S(C)(=O)=O)CC3=O)CCCCC2)oc1C (stereo not shown) [Example 125, 4-[N-[1-[N-(4,5-dimethyl-furan-2-ylcarbonyl)amino]cyclohexanecarbonyl]amino]-1-(2-methanesulfonylphenyl)piperidin-3-one] | 6.8 nM
CS(=O)(=O)c1ccccc1N1CCC(NC(=O)C2(NC(=O)c3cc4ccccc4s3)CCCCC2)C(=O)C1 (stereo not shown) [Example 128, 4-[N-[1-[N-(benzothiophen-2-ylcarbonyl)amino]cyclohexanecarbonyl]amino]-1-(2-methanesulfonylphenyl)piperidin-3-one] | 0.67 nM
O=Cc1ccccc1N1CCC(NC(=O)C2(NC(=O)c3cc4ccccc4o3)CCCCC2)C(=O)C1 (stereo not shown) [Example 15, 4-[N-[1-[N-(benzofuran-2-ylcarbonyl)amino]cyclohexanecarbonyl]amino]-1-(2-formylphenyl)piperidin-3-one] | 1.45 nM
Cc1ccsc1C(=O)NC1(C(=O)NC2CCN(c3ccccc3S(C)(=O)=O)CC2=O)CCCCC1 (stereo not shown) [Example 121, 4-[N-[1-[N-(3-methyl-thiophen-2-ylcarbonyl)amino]cyclohexanecarbonyl]amino]-1-(2-methanesulfonylphenyl)piperidin-3-one] | 7.73 nM
CC(=O)c1ccccc1N1CCC(NC(=O)C2(NC(=O)c3cc4ccccc4o3)CCCCC2)C(=O)C1 (stereo not shown) [Example 6, 4-[N-[1-[N-(benzofuran-2-ylcarbonyl)amino]cyclohexanecarbonyl]amino]-1-(2-acetylphenyl)piperidin-3-one] | 2.69 nM
CS(=O)(=O)c1ccccc1N1CCC(NC(=O)C2(NC(=O)c3cc4cc(OCCN5CCCC5)ccc4o3)CCCCC2)C(=O)C1 (stereo not shown) [Example 162, 4-[N-[1-[N-(5-(2-pyrrolidinethoxy)benzofuran-2-ylcarbonyl)amino]cyclohexanecarbonyl]amino]-1-(2-methanesulfonylphenyl)piperidin-3-one] | 0.45 nM
O=C(NC1(C(=O)NC2CCN(c3ccccc3Br)CC2=O)CCCCC1)c1cc2ccccc2o1 (stereo not shown) [Example 35, 4-[N-[1-[N-(benzofuran-2-ylcarbonyl)amino]cyclohexanecarbonyl]amino]-1-(2-bromophenyl)piperidin-3-one] | 2.35 nM
CSc1cc(F)ccc1N1CCC(NC(=O)C2(NC(=O)c3ccco3)CCCCC2)C(=O)C1 (stereo not shown) [Example 85, 4-[N-[1-[N-(furan-2-ylcarbonyl)amino]cyclohexanecarbonyl]amino]-1-(4-fluoro-2-thiomethoxyphenyl)piperidin-3-one] | 10.4 nM
Cc1cc(C(=O)NC2(C(=O)NC3CCN(c4ccccc4S(C)(=O)=O)CC3=O)CCCCC2)no1 (stereo not shown) [Example 106, 4-[N-[1-[N-(5-methyl-isoxazol-3-ylcarbonyl)amino]cyclohexanecarbonyl]amino]-1-(2-methanesulfonylphenyl)piperidin-3-one] | 19.9 nM
CCOC(=O)Nc1ccccc1N1CCC(NC(=O)C2(NC(=O)c3cc4ccccc4o3)CCCCC2)C(=O)C1 (stereo not shown) [Example 48, 4-[N-[1-[N-(benzofuran-2-ylcarbonyl)amino]cyclohexanecarbonyl]amino]-1-[2-[N-(ethoxycarbonyl)amino]phenyl]piperidin-3-one] | 0.67 nM
O=C(NC1(C(=O)NC2CCN(c3ccc(F)cc3-n3cccc3)CC2=O)CCCCC1)c1ccco1 (stereo not shown) [Example 99, 4-[N-[1-[N-(furan-2-ylcarbonyl)amino]cyclohexanecarbonyl]amino]-1-[4-fluoro-2-(pyrrol-1-yl)phenyl]piperidin-3-one] | 4.41 nM
CS(=O)(=O)c1ccccc1N1CCC(NC(=O)C2(NC(=O)c3cc4cc(OCCN5CCOCC5)ccc4o3)CCCCC2)C(=O)C1 (stereo not shown) [Example 161, 4-[N-[1-[N-(5-(2-morpholinethoxy)benzofuran-2-ylcarbonyl)amino]cyclohexanecarbonyl]amino]-1-(2-methanesulfonylphenyl)piperidin-3-one] | 0.41 nM
O=C(CCc1ccccc1)Nc1ccccc1N1CCC(NC(=O)C2(NC(=O)c3cc4ccccc4o3)CCCCC2)C(=O)C1 (stereo not shown) [Example 54, 4-[N-[1-[N-(benzofuran-2-ylcarbonyl)amino]cyclohexanecarbonyl]amino]-1-[2-[N-(3-phenylpropionyl)amino]phenyl]piperidin-3-one] | 6.09 nM
CC(C)(C)OC(=O)c1ccccc1N1CCC(NC(=O)C2(NC(=O)c3cc4ccccc4o3)CCCCC2)C(=O)C1 (stereo not shown) [Example 37, 4-[N-[1-[N-(benzofuran-2-ylcarbonyl)amino]cyclohexanecarbonyl]amino]-1-[2-(tert-butoxycarbonyl)phenyl]piperidin-3-one] | 3.78 nM
O=C(NC1(C(=O)NC2CCN(c3ccccc3-c3ccco3)CC2=O)CCCCC1)c1cc2ccccc2o1 (stereo not shown) [Example 34, 4-[N-[1-[N-(benzofuran-2-ylcarbonyl)amino]cyclohexanecarbonyl]amino]-1-[2-(2-furyl)phenyl]piperidin-3-one] | 1.93 nM
CS(=O)(=O)c1ccccc1N1CCC(NC(=O)C2(NC(=O)c3cc(N4CCCC4=O)co3)CCCCC2)C(=O)C1 (stereo not shown) [Example 168, 4-[N-[1-[N-(4-(2-oxopyrrolidine)furan-2-ylcarbonyl)amino]cyclohexanecarbonyl]amino]-1-(2-methanesulfonylphenyl)piperidin-3-one] | 15.8 nM
O=C(NC1(C(=O)NC2CCN(c3ccc(Cl)cc3F)CC2=O)CCCCC1)c1cc2ccccc2s1 (stereo not shown) [Example 131, 4-[N-[1-[N-(benzothiophen-2-ylcarbonyl)amino]cyclohexanecarbonyl]amino]-1-(4-chloro-2-fluoro-phenyl)piperidin-3-one] | 4.11 nM
CC(C)C(=O)Nc1ccccc1N1CCC(NC(=O)C2(NC(=O)c3cc4ccccc4o3)CCCCC2)C(=O)C1 (stereo not shown) [Example 51, 4-[N-[1-[N-(benzofuran-2-ylcarbonyl)amino]cyclohexanecarbonyl]amino]-1-[2-[N-(isobutyryl)amino]phenyl]piperidin-3-one] | 4.11 nM
CS(=O)(=O)c1c(F)cccc1N1CCC(NC(=O)C2(NC(=O)c3ccco3)CCCCC2)C(=O)C1 (stereo not shown) [Example 77, 4-[N-[1-[N-(furan-2-ylcarbonyl)amino]cyclohexanecarbonyl]amino]-1-(3-fluoro-2-methylsulfonylphenyl)piperidin-3-one] | 5.97 nM
Cc1c(C(=O)NC2(C(=O)NC3CCN(c4cc(F)ccc4C(F)(F)F)CC3=O)CCCCC2)oc2ccccc12 (stereo not shown) [Example 134, 4-[N-[1-[N-(3-methyl-benzofuran-2-ylcarbonyl)amino]cyclohexanecarbonyl]amino]-1-(5-fluoro-2-trifluoromethylphenyl)piperidin-3-one] | 6.09 nM
CS(=O)(=O)c1ccccc1N1CCC(NC(=O)C2(NC(=O)c3ccc(OCCN4CCCC4)cc3)CCCCC2)C(=O)C1 (stereo not shown) [Example 156, 4-[N-[1-[N-(4-(2-pyrrolidinethoxy)benzoyl)amino]cyclohexanecarbonyl]amino]-1-(2-methanesulfonylphenyl)piperidin-3-one] | 1.9 nM
N#Cc1ccc(N2CCC(NC(=O)C3(NC(=O)c4cc5ccccc5o4)CCCCC3)C(=O)C2)cc1 (stereo not shown) [Example 7, 4-[N-[1-[N-(benzofuran-2-ylcarbonyl)amino]cyclohexanecarbonyl]amino]-1-(4-cyanophenyl)piperidin-3-one] | 6.24 nM
O=C(NC1(C(=O)NC2CCN(c3ccccc3-c3nnn[nH]3)CC2=O)CCCCC1)c1cc2ccccc2o1 (stereo not shown) [Example 67, 4-[N-[1-[N-(benzofuran-2-ylcarbonyl)amino]cyclohexanecarbonyl]amino]-1-[2-(1H-tetrazol-5-yl)phenyl]piperidin-3-one] | 4.77 nM
CN(C)c1ccc(C(=O)NC2(C(=O)NC3CCN(c4ccc(F)cc4S(C)(=O)=O)CC3=O)CCCCC2)cc1 (stereo not shown) [Example 173, 4-[N-[1-[N-(4-(dimethylamino)benzoyl)amino]cyclohexanecarbonyl]amino]-1-(4-fluoro-2-methanesulfonylphenyl)piperidin-3-one hydrochloride] | 1.59 nM
CC(C)Oc1ccccc1N1CCC(NC(=O)C2(NC(=O)c3cc4ccccc4o3)CCCCC2)C(=O)C1 (stereo not shown) [Example 41, 4-[N-[1-[N-(benzofuran-2-ylcarbonyl)amino]cyclohexanecarbonyl]amino]-1-(2-isopropoxyphenyl)piperidin-3-one] | 7.73 nM
CS(=O)(=O)c1ccccc1N1CCC(NC(=O)C2(NC(=O)c3ccc(OCCN4CCCCC4)cc3)CCCCC2)C(=O)C1 (stereo not shown) [Example 160, 4-[N-[1-[N-(4-(2-piperidinethoxy)benzoyl)amino]cyclohexanecarbonyl]amino]-1-(2-methanesulfonylphenyl)piperidin-3-one hydrochloride] | 3.14 nM
